What was measured:
[1] = biological target: GluA2i(Q) (Rattus norvegicus, UniProt P19491); assay: Ca2+/Fluo-4 assay, GluA2; format: cell-based; details: for GluA2i(Q) SAR@: concentration giving significant agonist response >5% of the maximal response induced by (S)-Glu: HEK293, complete concentration-response curve could not be obtained
[2] = biological target: GluA2(R)o (Rattus norvegicus, UniProt P19491, Q607R); details: Hill coefficient of binding curve
[3] = biological target: GluA1o (Rattus norvegicus, UniProt P19490); details: Hill coefficient of binding curve
Chain of GluA1o (P19490 19-907): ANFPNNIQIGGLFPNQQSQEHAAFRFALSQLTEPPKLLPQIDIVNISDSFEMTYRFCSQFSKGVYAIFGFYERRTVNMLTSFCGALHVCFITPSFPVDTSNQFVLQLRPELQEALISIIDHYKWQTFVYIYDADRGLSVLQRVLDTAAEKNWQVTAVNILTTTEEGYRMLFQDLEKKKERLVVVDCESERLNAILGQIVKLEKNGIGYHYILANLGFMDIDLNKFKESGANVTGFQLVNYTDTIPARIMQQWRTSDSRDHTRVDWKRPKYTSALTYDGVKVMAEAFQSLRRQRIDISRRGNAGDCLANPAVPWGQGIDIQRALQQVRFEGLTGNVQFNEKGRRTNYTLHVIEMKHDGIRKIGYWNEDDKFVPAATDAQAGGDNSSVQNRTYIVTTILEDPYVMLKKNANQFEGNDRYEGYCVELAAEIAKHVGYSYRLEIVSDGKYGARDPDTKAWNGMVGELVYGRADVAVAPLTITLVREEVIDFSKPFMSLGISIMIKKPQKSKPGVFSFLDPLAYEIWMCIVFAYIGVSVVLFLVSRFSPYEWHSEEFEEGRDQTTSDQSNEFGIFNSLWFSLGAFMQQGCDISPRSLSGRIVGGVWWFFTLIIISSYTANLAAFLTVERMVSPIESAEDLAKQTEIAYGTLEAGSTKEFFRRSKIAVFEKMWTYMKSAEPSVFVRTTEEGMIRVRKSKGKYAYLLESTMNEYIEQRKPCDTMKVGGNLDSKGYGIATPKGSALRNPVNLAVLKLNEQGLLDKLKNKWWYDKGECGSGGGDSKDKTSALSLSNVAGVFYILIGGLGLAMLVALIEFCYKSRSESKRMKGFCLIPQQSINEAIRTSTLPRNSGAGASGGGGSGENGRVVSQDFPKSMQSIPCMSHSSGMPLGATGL

[4] = biological target: GluA3o (Rattus norvegicus, UniProt P19492); details: Hill coefficient of binding curve
Chain of GluA3o (P19492 23-888): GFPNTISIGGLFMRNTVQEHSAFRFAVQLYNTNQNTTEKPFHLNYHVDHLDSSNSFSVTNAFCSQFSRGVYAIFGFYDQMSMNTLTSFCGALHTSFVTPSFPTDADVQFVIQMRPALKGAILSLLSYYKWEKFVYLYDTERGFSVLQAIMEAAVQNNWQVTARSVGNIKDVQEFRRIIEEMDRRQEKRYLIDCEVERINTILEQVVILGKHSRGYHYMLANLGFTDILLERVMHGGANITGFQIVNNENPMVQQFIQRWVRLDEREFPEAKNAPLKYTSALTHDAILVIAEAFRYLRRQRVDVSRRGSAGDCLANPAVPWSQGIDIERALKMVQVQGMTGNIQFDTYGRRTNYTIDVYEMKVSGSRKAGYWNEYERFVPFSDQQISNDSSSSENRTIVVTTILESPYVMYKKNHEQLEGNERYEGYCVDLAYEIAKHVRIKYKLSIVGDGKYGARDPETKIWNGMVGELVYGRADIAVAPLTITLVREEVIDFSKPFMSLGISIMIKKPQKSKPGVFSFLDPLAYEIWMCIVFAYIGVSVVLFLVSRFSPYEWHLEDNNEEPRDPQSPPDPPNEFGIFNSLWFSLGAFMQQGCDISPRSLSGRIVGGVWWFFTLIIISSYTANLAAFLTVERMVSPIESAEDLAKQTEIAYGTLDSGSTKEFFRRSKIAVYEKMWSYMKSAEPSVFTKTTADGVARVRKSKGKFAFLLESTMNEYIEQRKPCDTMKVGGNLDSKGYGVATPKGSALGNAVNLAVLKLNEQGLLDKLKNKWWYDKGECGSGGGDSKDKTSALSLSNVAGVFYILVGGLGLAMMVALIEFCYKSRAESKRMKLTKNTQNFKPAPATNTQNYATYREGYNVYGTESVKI

[5] = biological target: GluA4o (Rattus norvegicus, UniProt P19493); details: Hill coefficient of binding curve
Chain of GluA4o (P19493 21-902): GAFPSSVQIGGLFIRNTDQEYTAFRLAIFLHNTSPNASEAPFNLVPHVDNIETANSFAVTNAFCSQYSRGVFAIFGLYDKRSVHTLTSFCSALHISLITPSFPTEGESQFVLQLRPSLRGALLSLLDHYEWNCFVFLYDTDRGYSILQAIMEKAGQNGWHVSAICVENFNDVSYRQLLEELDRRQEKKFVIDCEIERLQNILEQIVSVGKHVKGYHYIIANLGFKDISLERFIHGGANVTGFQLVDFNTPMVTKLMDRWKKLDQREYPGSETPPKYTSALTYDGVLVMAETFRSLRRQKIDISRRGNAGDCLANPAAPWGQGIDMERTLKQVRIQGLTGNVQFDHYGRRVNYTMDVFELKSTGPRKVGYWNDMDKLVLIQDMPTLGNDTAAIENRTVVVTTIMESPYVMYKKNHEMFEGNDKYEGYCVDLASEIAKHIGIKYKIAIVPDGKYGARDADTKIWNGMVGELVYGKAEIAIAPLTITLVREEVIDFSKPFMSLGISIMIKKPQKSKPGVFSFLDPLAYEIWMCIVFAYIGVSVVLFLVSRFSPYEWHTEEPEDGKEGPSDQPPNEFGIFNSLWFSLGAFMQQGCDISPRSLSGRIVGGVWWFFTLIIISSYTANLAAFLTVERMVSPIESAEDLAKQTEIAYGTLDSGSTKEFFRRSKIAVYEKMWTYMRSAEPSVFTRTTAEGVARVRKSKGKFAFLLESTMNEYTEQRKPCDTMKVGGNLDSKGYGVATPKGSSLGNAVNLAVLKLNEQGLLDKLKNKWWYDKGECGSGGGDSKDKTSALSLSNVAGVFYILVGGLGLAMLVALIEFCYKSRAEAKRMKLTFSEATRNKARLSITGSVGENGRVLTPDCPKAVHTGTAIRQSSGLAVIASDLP

[6] = biological target: GluN1/2B (Rattus norvegicus, UniProt P35439+Q00960); details: 100 μM, in absence of both Glu and Gly
[7] = biological target: GluN1/2C (Rattus norvegicus, UniProt P35439+Q00961); details: 100 μM, in absence of both Glu and Gly
Chain of GluN1/2C (Q00961 20-1237, other chains not shown): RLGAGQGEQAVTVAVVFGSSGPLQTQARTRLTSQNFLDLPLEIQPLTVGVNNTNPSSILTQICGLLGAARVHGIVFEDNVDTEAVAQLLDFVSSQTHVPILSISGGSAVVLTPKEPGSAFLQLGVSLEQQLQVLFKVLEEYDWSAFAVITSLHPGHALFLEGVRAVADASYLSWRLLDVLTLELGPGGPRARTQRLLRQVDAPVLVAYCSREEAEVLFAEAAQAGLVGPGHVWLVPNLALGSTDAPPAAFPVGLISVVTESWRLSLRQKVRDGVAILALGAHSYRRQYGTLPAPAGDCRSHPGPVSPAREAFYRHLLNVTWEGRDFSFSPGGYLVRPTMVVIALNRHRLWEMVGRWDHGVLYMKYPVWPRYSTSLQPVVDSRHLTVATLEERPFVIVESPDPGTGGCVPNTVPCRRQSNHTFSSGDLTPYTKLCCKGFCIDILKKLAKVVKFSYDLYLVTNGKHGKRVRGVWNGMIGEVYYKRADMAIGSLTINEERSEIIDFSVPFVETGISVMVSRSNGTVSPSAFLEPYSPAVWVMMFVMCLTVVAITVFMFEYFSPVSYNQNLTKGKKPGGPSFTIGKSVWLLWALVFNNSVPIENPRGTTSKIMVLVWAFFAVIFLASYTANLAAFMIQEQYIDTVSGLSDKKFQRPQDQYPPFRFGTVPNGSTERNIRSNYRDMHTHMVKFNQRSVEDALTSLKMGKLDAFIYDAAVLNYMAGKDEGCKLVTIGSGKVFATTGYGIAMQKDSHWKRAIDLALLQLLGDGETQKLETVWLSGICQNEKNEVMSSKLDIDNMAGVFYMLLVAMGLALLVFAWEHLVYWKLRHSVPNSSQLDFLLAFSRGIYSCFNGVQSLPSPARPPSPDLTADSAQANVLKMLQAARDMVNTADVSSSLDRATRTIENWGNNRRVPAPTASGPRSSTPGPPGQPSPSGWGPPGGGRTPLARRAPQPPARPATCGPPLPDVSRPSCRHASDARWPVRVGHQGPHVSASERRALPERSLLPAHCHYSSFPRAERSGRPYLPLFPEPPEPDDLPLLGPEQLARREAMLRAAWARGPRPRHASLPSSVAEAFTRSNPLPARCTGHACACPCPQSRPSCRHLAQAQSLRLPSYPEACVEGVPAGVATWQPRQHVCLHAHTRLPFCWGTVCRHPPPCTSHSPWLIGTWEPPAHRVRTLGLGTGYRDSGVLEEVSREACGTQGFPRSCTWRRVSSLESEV

[8] = biological target: GluN1/2D (Rattus norvegicus, UniProt P35439+Q62645); details: 100 μM, in absence of both Glu and Gly
[9] = biological target: GluA3i (Rattus norvegicus, UniProt P19492); assay: Ca2+/Fluo-4 assay, GluA3i-HEK293 cell line; format: cell-based
Chain of GluA3i (P19492 23-888 isoform P19492-2 limits assumed): as the sequence (P19492 23-888) above, with N748T, A749P, N758S, L762I, S779A, G780K, G781D, G782S, D783G counted along it

[10] = biological target: GluA1i (Rattus norvegicus, UniProt P19490); assay: Ca2+/Fluo-4 assay, GluA1i-HEK293 cell line; format: cell-based
Chain of GluA1i (P19490 19-907 isoform P19490-2 limits assumed): as the sequence (P19490 19-907) above, with N740G, N750S, L754V, N760S, G772K, G773D, G774S, D775G counted along it

[11] = biological target: GluA4i (Rattus norvegicus, UniProt P19493); assay: cell-based; details: GluA4i EC50, HEK293; 10 mM Ca2+ and 100 μM cyclothiazide; tested up to 1000 μM

Chain of GluA2i(Q) (P19491 22-883 isoform P19491-2 limits assumed): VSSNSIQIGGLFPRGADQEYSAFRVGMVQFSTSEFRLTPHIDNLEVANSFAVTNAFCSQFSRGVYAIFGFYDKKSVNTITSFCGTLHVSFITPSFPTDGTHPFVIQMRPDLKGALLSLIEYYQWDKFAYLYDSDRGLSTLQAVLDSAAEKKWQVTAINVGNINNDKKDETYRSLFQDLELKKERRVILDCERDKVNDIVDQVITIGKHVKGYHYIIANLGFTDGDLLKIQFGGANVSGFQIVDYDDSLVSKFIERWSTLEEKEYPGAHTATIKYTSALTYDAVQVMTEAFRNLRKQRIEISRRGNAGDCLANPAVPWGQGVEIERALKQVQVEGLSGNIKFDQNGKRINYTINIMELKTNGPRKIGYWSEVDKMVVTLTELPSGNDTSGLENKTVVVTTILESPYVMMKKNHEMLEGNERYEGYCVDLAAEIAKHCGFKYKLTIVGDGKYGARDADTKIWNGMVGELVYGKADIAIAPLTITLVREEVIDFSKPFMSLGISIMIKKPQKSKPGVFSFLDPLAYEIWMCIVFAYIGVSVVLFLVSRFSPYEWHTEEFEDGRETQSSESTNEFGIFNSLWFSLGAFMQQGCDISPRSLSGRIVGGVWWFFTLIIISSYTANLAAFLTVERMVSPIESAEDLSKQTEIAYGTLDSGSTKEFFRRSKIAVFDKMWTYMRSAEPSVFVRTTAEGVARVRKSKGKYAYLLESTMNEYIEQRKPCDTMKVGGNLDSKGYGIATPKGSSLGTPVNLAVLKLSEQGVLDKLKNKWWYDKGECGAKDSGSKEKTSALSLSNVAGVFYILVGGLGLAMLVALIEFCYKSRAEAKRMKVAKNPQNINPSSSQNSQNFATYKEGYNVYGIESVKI
Chain of GluA2(R)o (P19491 22-883 Q607R): as the sequence (P19491 22-883 isoform P19491-2 limits assumed) above, with Q586R, T744N, P745A, S754N, V758L, A775S, K776G, D777G, S778G, G779D counted along it

EC50 [1] [mM] | EC50 [9] [mM] | EC50 [10] [mM] | Compound | GluA2i(Q) SAR@: concentration giving significant agonist response >5% of the maximal response induced by (S)-Glu [1] | GluA2(R)o nH [2] | GluA1o nH [3] | GluA3o nH [4] | other results
 |  |  | CCCn1nnc(O)c1CC(N)C(=O)O (racemic) [Compound 6c, (RS) 2-Amino-3-(4-hydroxy-1-propyl-1H-1,2,3-triazol-5-yl)propanoic acid] | SAR@ 1000 μM | 1.55 ± 0.65 | 0.81 ± 0.07 | 0.75 ± 0.09 | 
 |  |  | Cn1nnc(O)c1CC(N)C(=O)O (racemic) [Compound 6a, (RS) 2-Amino-3-(4-hydroxy-1-methyl-1H-1,2,3-triazol-5-yl)propanoic acid] | SAR@ 300 μM | 0.95 ± 0.09 | 1.02 ± 0.17 | 0.95 ± 0.25 | GluA4o nH [5]: 0.89 ± 0.07
 |  |  | Cn1nc(O)c(C(N)C(=O)O)n1 (racemic) [Compound 8, (RS) 2-Amino-2-(5-hydroxy-2-methyl-2H-1,2,3-triazol-4-yl)acetic acid] |  |  |  |  | Activation by compound alone [6]: able to activate; Activation by compound alone [7]: able to activate; Activation by compound alone [8]: able to activate
> 1 | > 1 | > 1 | CCCn1nc(O)c(CC(N)C(=O)O)n1 (racemic) [Compound 7c, (RS) 2-Amino-3-(5-hydroxy-2-propyl-2H-1,2,3-triazol-4-yl)propanoic acid] |  |  |  |  | 
> 1 | > 1 | > 1 | CCn1nc(O)c(CC(N)C(=O)O)n1 (racemic) [Compound 7b, (RS) 2-Amino-3-(2-ethyl-5-hydroxy-2H-1,2,3-triazol-4-yl)propanoic acid] |  |  |  |  | EC50 [11]: > 1 mM

Source: PMC6508984 (Journal of medicinal chemistry, 2019)
